According to patent publication US11731943B2, “Therapeutic compounds, compositions and methods of use thereof” (priority 2016, dated 2023):
pIC50, pKi: −log10 of the molar value. Read-outs that look alike come from different tables or passages of the source.

Assays:
[1] = biological target: isolated recombinant JAK1 kinase domain (Homo sapiens (Human), UniProt P23458); assay: JAK1 enzyme assay (Caliper LabChip, Ki); assay type: biochemical
Summary of the method: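 Ki derived via Morrison tight-binding model, ATP-competitive correction applied. Read-out: product/total ratio of a 5-carboxyfluorescein-tagged JAK3 peptide separated on Caliper LabChip after phosphorylation by isolated human JAK1 kinase domain (22 °C, 30 min; EDTA quench, 50 mM final).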

[2] = biological target: isolated recombinant JAK2 kinase domain (Homo sapiens (Human), UniProt O60674); assay: JAK2 enzyme assay (Caliper LabChip, Ki); assay type: biochemical
Summary of the method: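 Caliper LabChip readout of phosphorylated product as a fraction of total substrate, a fluorescently N-terminally labelled JAK3-derived peptide. Isolated human JAK kinase domains were incubated 30 min at 22 °C before EDTA quench (50 mM final).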

[3] = test system: JAK1-dependent STAT6 phosphorylation downstream of IL-13 stimulation in BEAS-2B human bronchial epithelial cells; assay: JAK1 pathway assay in BEAS-2B cells (IL-13-pSTAT6, MSD); assay type: cell-based; conditions: Homo sapiens, BEAS-2B, BEAS-2B cells, IL-13 stimulation; read-out: IL-13 p-STAT6 BEAS-2B IC50
Method: JAK1 Pathway Assay in Cell Lines was carried out as follows:
Inhibitor potency (EC50) was determined in cell-based assays designed to measure JAK1 dependent STAT phosphorylation.
In one assay approach, TF-1 human erythroleukemia cells obtained from the American Type Culture Collection (ATCC; Manassas, Va.) were used to measure JAK1-dependent STAT6 phosphorylation downstream of IL-13 stimulation. Prior to use in the assays, TF-1 cells were starved of GM-CSF overnight in OptiMEM medium (Life Technologies, Grand Island, N.Y.) supplemented with 0.5% charcoal/dextran stripped fetal bovine serum (FBS), 0.1 mM non-essential amino acids (NEAA), and 1 mM sodium pyruvate. The assays were run in 384-well plates in serum-free OptiMEM medium using 300,000 cells per well. In a second assay approach, BEAS-2B human bronchial epithelial cells obtained from ATCC were plated at 100,000 cells per well of a 96-well plate one day prior to the experiment. The BEAS-2B assay was run in complete growth medium (bronchial epithelial basal medium plus bulletkit; Lonza; Basel, Switzerland).
Test compounds were serially diluted 1:2 in DMSO and then diluted 1:50 in medium just before use. Diluted compounds were added to the cells, for a final DMSO concentration of 0.2%, and incubated for 30 min (for the TF-1 assay) or 1 hr (for the BEAS-2B assay) at 37° C. Then, cells were stimulated with human recombinant cytokine at their respective EC90 concentrations, as previously determined for each individual lot. Cells were stimulated with IL-13 (R&D Systems, Minneapolis, Minn.) for 15 min at 37° C. The TF-1 cell reactions were stopped by the direct addition of 10× lysis buffer (Cell Signaling Technologies, Danvers, Mass.), whereas the BEAS-2B cell incubations were halted by the removal of medium and addition of 1× lysis buffer. The resultant samples were frozen in the plates at −80° C. Compound mediated inhibition of STATE phosphorylation was measured in the cell lysates using MesoScale Discovery (MSD) technology (Gaithersburg, Md.).

Sequence of isolated recombinant JAK2 kinase domain (O60674 849-1124): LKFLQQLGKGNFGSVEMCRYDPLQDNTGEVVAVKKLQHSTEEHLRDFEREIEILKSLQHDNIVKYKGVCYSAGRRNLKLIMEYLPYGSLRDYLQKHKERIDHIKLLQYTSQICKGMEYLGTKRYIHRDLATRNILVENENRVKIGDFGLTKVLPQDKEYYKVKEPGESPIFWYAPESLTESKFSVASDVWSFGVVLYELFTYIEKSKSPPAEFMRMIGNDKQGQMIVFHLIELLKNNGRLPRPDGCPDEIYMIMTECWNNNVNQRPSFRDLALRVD
Sequence of isolated recombinant JAK1 kinase domain (P23458 875-1153): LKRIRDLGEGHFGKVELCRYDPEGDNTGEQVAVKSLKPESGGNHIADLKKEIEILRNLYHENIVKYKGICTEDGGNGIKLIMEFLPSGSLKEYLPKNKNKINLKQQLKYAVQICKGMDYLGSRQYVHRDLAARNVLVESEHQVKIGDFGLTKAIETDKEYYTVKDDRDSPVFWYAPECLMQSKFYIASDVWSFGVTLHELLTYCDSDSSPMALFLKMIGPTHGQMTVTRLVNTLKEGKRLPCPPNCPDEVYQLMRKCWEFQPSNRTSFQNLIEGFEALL

Row | SMILES | pKi ([1]; read-out: JAK1 Ki) | pKi [2] | pIC50 [3] | pKi [1]
1 | N#CCC1(n2cc(C(N)=O)c(NC(=O)C3CC3)n2)CCN(Cc2ccc(-c3ccccc3)nc2)CC1F (stereo not drawn) [Example 193, 1-[4-(cyanomethyl)-3-fluoro-1-[(6-phenyl-3-pyridyl)methyl]-4-piperidyl]-3-(cyclopropanecarbonylamino) pyrazole-4-carboxamide] | 9.48 | 9.59 | 7.32 | 
2 | N#CCC1(n2cc(C(N)=O)c(NC(=O)C3CC3)n2)CCN(C(=O)OCC2CC2)CC1 [Example 17, Cyclopropylmethyl 4-(4-carbamoyl-3-(cyclopropanecarboxamido)-1H-pyrazol-1-yl)4-(cyanomethyl) piperidine-1-carboxylate] | 8.40 | 7.16 | 6.02 | 
3 | COc1cccc(-c2ccc(CN3CCC(CC#N)(n4cc(C(N)=O)c(NC(=O)C5CC5)n4)CC3)cc2)c1 [Example 152, 1-[4-(cyanomethyl)-1-[[4-(3-methoxyphenyl)phenyl]methyl]-4-piperidyl]-3-(cyclopropanecarbonylamino) pyrazole-4-carboxamide] | 8.89 | 8.11 | 6.90 | 
4 | C=Cc1cc(F)c(CN2CCC(CC#N)(n3cc(C(N)=O)c(NC(=O)OC)n3)C(F)C2)cc1O (stereo not drawn) [Example 285, methyl N-[4-carbamoyl-1-[4-(cyanomethyl)-3-fluoro-1-[(2-fluoro-5-hydroxy-4-vinyl-phenyl)methyl]-4-piperidyl]pyrazol-3-yl]carbamate] | 9.72 | 9.64 | 7.66 | 
5 | CCOC1(C(F)(F)F)CN([C@H]2CC[C@@](CC#N)(n3cc(C(N)=O)c(NC(=O)C4CC4)n3)CC2)C1 (single isomer, unassigned) [Example 9] | 8.66 | 7.61 | 6.36 | 
6 | COC(=O)Nc1nn(C2(CC#N)CCN(Cc3ccc(-c4csc(C)n4)cc3)CC2F)cc1C(N)=O (stereo not drawn) [Example 249, methyl N-[4-carbamoyl-1-[4-(cyanomethyl)-3-fluoro-1-[[4-(2-methylthiazol-4-yl)phenyl]methyl]-4-piperidyl]pyrazol-3-yl]carbamate] | 9.28 | 9.25 | 7.59 | 
7 | CCOC(=O)Nc1nn(C2(CC#N)CCN(Cc3ccc(-c4ccccc4)c(O)c3)CC2)cc1C(N)=O [Example 187, ethyl N-[4-carbamoyl-1-[4-(cyanomethyl)-1-[(3-hydroxy-4-phenyl-phenyl)methyl]-4-piperidyl]pyrazol-3-yl]carbamate] | 9.28 | 8.51 | 7.13 | 
8 | CC[C@]1(n2cc(C(N)=O)c(Nc3ccc(S(C)(=O)=O)cc3)n2)CC[C@H](N2CC(C(F)(F)F)C2)CC1 [Example 302, 1-((1S,4S)-1-ethyl-4-(3-(trifluoromethyl)azetidin-1-yl)cyclohexyl)-3-((4-(methylsulfonyl)phenyl)amino)-1H-pyrazole-4-carboxamide] | 9.03 | 8.70 | 7.37 | 
9 | N#CCC1(n2cc(C(N)=O)c(NC(=O)C3CC3)n2)CCN(Cc2ccc(Br)cc2)CC1 [Example 52] | 8.64 | 7.68 | 6.99 | 
10 | COC(=O)Nc1nn(C2(CC#N)CCN(Cc3ccc(-n4nccn4)cc3)CC2F)cc1C(N)=O (stereo not drawn) [Example 200, methyl N-[4-carbamoyl-1-[4-(cyanomethyl)-3-fluoro-1-[[4-(triazol-2-yl)phenyl]methyl]-4-piperidyl]pyrazol-3-yl]carbamate] | 9.29 | 9.02 | 7.41 | 
11 | N#CCC1(n2cc(C(N)=O)c(NC(=O)C3CC3)n2)CCN(Cc2ccc(C3=CCCC3)cc2)CC1F (stereo not drawn) [Example 261, 1-[4-(cyanomethyl)-1-[[4-(cyclopenten-1-yl)phenyl]methyl]-3-fluoro-4-piperidyl]-3-(cyclopropanecarbonylamino) pyrazole-4-carboxamide] | 9.25 | 9.09 | 7.68 | 
12 | N#CCC1(n2cc(C(N)=O)c(NC(=O)C3CC3)n2)CCN(Cc2ccc(-c3ccccc3)nc2F)CC1F (stereo not drawn) [Example 201, 1-[4-(cyanomethyl)-3-fluoro-1-[(2-fluoro-6-phenyl-3-pyridyl)methyl]-4-piperidyl]-3-(cyclopropanecarbonylamino) pyrazole-4-carboxamide] | 9.62 | 9.64 | 7.64 | 
13 | N#CCC1(n2cc(C(N)=O)c(NC(=O)C3CC3)n2)CCN(Cc2ccc(-n3nccn3)c(O)c2)CC1F (stereo not drawn) [Example 286, 1-[4-(cyanomethyl)-3-fluoro-1-[[3-hydroxy-4-(triazol-2-yl)phenyl]methyl]-4-piperidyl]-3-(cyclopropanecarbonylamino) pyrazole-4-carboxamide] | 9.37 | 9.40 | 7.28 | 
14 | N#CCC1(n2cc(C(N)=O)c(NC(=O)C3CC3)n2)CCN(Cc2ccc(-c3csc(Cl)c3)cc2)CC1 [Example 149, 1-[1-[[4-(5-chloro-3-thienyl)phenyl]methyl]-4-(cyanomethyl)-4-piperidyl]-3-(cyclopropanecarbonylamino) pyrazole-4-carboxamide] | 9.15 | 8.33 | 7.39 | 
15 | N#CC[C@]1(n2cc(C(N)=O)c(NC(=O)C3CC3)n2)CC[C@H](N2CC3(CCC3)C2)CC1 [Example 107] |  | 7.37 | < 6.00 | 8.48
16 | N#CCC1(n2cc(C(N)=O)c(NC(=O)C3CC3)n2)CCN(Cc2ccc(-c3cccc(CO)c3)cc2)CC1 [Example 156, 1-[4-(cyanomethyl)-1-[[4-[3-(hydroxymethyl)phenyl]phenyl]methyl]-4-piperidyl]-3-(cyclopropanecarbonylamino) pyrazole-4-carboxamide] | 9.22 | 8.37 | 6.68 | 
17 | C#Cc1ccc(CN2CCC(CC#N)(n3cc(C(N)=O)c(NC(=O)OC)n3)C(F)C2)cc1 (stereo not drawn) [Example 270, methyl N-[4-carbamoyl-1-[4-(cyanomethyl)-1-[(4-ethynylphenyl)methyl]-3-fluoro-4-piperidyl]pyrazol-3-yl]carbamate] | 9.39 | 9.05 | 7.68 | 
18 | CC(OC(=O)N1CCC(CC#N)(n2cc(C(N)=O)c(NC(=O)C3CC3)n2)CC1)C1CC1 (stereo not drawn) [Example 182, 1-cyclopropylethyl 4-[4-carbamoyl-3-(cyclopropanecarbonylamino)pyrazol-1-yl]-4-(cyanomethyl)piperidine-1-carboxylate] | 8.33 | 7.29 | 6.17 | 
19 | N#CCC1(n2cc(C(N)=O)c(NC(=O)C3CC3)n2)CCN(Cc2ccc(F)cc2)CC1 [Example 57] | 8.41 | 7.31 | 6.89 | 
20 | N#CCC1(n2cc(C(N)=O)c(NC(=O)C3CC3)n2)CCN(Cc2ccc(-n3nccn3)cc2)CC1 [Example 89] | 9.15 | 8.17 | 6.92 | 
21 | COC(=O)Nc1nn(C2(CC#N)CCN(Cc3ccc(C4=CCCCC4)c(O)c3)CC2F)cc1C(N)=O (stereo not drawn) [Example 258, methyl N-[4-carbamoyl-1-[4-(cyanomethyl)-1-[[4-(cyclohexen-1-yl)-3-hydroxy-phenyl]methyl]-3-fluoro-4-piperidyl]pyrazol-3-yl]carbamate] | 9.47 | 9.54 | 7.47 | 
22 | COC(=O)Nc1nn(C2(CC#N)CCN(Cc3ccc(-c4ccccc4)c(O)c3F)CC2F)cc1C(N)=O (stereo not drawn) [Example 263, methyl N-[4-carbamoyl-1-[4-(cyanomethyl)-3-fluoro-1-[(2-fluoro-3-hydroxy-4-phenyl-phenyl)methyl]-4-piperidyl]pyrazol-3-yl]carbamate] | 9.52 | 9.62 | 7.60 | 
23 | C#CC1CC1C(=O)Nc1nn(C2(CC#N)CCN(Cc3ccc(-c4ccccc4)cc3)CC2F)cc1C(N)=O (stereo not drawn) [Example 254, 1-[4-(cyanomethyl)-3-fluoro-1-[(4-phenylphenyl)methyl]-4-piperidyl]-3-[(2-ethynylcyclopropanecarbonyl)amino]pyrazole-4-carboxamide] | 9.37 | 9.09 | 7.37 | 
24 | COC(=O)Nc1nn(C2(CC#N)CCN(Cc3ccc(-c4ccoc4)c(O)c3)CC2F)cc1C(N)=O (stereo not drawn) [Example 244, methyl N-[4-carbamoyl-1-[4-(cyanomethyl)-3-fluoro-1-[[4-(3-furyl)-3-hydroxy-phenyl]methyl]-4-piperidyl]pyrazol-3-yl]carbamate] | 9.70 | 9.43 | 7.17 | 
